Laboratory results taken from US9650339B2, “Inhibitors of histone demethylases” (Gilead Sciences, Inc., priority 2013, dated 2017).

How the values were obtained:
Format in all cases: cell-based
KDM4C = target: T1, KDM4C (Homo sapiens, UniProt Q9H3R0); experiment: Histone lysine demethylase immunofluorescence assay, U2OS cells transfected with KDM4C; settings: U2OS cells transfected with pCMVHA KDM4C; mark detected H3K9me3; 20 hours
T1 construct: Full length; host or cells: U2OS
T1 sequence (Q9H3R0 1-1056): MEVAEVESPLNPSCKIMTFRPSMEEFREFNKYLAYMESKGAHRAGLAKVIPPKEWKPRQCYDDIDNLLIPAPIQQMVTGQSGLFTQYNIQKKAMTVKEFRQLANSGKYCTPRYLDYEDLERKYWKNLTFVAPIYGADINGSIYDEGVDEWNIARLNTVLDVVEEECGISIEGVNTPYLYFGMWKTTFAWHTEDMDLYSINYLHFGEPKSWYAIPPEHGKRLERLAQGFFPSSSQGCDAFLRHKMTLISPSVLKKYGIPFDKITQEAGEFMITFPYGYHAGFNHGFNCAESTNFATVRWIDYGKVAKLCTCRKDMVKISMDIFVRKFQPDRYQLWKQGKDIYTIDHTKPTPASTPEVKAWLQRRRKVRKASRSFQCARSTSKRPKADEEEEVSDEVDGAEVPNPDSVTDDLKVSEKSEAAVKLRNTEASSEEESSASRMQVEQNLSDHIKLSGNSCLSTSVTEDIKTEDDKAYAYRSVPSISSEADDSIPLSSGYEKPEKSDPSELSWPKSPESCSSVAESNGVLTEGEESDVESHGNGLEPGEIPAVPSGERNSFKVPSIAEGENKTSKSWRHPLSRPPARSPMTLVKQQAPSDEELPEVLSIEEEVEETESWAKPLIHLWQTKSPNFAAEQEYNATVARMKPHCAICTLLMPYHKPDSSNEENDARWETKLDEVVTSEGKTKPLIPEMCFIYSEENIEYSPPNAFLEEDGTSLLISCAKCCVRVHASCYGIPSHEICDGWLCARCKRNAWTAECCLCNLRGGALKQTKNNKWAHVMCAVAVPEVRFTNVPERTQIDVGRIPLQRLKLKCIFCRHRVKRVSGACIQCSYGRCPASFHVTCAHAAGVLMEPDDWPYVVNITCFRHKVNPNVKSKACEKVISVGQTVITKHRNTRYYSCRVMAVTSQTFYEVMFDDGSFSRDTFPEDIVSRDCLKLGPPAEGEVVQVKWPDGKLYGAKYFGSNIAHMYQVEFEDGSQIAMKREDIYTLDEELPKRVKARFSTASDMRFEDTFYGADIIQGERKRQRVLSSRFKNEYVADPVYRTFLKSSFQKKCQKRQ
Protocol: (§1) U2OS cells were seeded 24 hours before transfection. Transfection was performed with Fugene HD transfection reagent as recommended by the manufacturer. 6 hours after transfection, the cells were harvested and seeded into multi well plates into media containing compound. The media used was DMEM containing 10% FBS and pen/strep. 20 hours after incubation of cells with compounds, the cells were washed in PBS, harvested by fixation with formaldehyde 4% aqueous solution, and washed in PBS. Subsequently, the cells were permeabilized in PBS with 0.2% Triton X-100 for. Blocking was performed in PBS with 0.2% Triton X-100 and 5% FBS. The cells were incubated with primary antibodies in blocking solution over night at 4° C. The primary antibodies used in the assays were HA.11 (Covance, MMS-101P) and the antibody detecting the mark specified in the table below. After incubation with primary antibodies, the cells were washed with PBS, incubated with secondary antibodies (Alexa fluor 594 goat anti rabbit IgG, Invitrogen, A11012; Alexa flour 488 donkey anti mouse IgG, Invitrogen, A21202) and Hoechst, (Sigma, 33342) in blocking solution, and washed again with PBS. Finally, PBS was added and high throughput imaging and analysis were performed by an IN Cell Analyzer 1000 (GE Healthcare). The robot software analyzed individual cells and divided these into HA+ (transfected cells) and HA− (non-transfected cells). The IC50 values were based on an average measure of the staining of the mark specified in the table below in the transfected cells.

KDM2A = target: T2, KDM2A (Homo sapiens, UniProt Q9Y2K7); experiment: Histone lysine demethylase immunofluorescence assay, U2OS cells transfected with KDM2A; settings: U2OS cells transfected with pCMVHA KDM2A; mark detected H3K36me2; 20 hours
T2 construct: Full length; host or cells: U2OS
T2 sequence (Q9Y2K7 1-1162): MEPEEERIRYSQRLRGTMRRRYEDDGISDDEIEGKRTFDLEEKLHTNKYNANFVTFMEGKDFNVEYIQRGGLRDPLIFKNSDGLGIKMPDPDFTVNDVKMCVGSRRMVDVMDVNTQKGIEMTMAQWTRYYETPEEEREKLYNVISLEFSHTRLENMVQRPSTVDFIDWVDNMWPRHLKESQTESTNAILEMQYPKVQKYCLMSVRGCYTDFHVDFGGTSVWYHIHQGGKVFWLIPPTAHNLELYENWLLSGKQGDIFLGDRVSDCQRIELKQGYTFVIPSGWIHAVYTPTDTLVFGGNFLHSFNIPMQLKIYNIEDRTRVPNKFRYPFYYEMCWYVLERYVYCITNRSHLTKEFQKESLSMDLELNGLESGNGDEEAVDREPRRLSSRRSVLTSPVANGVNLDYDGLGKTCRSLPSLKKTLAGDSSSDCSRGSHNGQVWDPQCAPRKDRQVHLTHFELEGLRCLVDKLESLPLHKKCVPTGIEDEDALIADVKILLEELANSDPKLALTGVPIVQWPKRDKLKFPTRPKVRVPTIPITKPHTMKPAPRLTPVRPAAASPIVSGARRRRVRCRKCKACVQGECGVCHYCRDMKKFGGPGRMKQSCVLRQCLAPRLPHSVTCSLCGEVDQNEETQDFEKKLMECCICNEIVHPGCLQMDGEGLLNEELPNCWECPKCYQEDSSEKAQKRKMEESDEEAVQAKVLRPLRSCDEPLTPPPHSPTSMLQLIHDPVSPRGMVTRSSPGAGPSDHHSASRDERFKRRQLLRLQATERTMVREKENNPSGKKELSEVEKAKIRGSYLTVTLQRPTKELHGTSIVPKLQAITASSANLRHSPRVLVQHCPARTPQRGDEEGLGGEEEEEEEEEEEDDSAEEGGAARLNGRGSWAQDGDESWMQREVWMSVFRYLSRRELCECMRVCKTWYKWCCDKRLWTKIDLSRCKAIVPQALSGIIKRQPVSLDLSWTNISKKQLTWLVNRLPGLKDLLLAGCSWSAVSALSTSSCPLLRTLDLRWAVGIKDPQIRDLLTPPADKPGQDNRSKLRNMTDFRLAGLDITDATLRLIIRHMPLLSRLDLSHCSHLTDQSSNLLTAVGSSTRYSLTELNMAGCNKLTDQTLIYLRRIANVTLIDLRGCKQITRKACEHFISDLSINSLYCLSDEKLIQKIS
Protocol: as §1

KDM5B = target: T3, KDM5B (Homo sapiens, UniProt Q9UGL1); experiment: Histone lysine demethylase immunofluorescence assay, U2OS cells transfected with KDM5B; settings: U2OS cells transfected with pCMVHA KDM5B; mark detected H3K4me2; 20 hours
T3 construct: (a.a. 1-752); host or cells: U2OS
T3 sequence (Q9UGL1 1-752): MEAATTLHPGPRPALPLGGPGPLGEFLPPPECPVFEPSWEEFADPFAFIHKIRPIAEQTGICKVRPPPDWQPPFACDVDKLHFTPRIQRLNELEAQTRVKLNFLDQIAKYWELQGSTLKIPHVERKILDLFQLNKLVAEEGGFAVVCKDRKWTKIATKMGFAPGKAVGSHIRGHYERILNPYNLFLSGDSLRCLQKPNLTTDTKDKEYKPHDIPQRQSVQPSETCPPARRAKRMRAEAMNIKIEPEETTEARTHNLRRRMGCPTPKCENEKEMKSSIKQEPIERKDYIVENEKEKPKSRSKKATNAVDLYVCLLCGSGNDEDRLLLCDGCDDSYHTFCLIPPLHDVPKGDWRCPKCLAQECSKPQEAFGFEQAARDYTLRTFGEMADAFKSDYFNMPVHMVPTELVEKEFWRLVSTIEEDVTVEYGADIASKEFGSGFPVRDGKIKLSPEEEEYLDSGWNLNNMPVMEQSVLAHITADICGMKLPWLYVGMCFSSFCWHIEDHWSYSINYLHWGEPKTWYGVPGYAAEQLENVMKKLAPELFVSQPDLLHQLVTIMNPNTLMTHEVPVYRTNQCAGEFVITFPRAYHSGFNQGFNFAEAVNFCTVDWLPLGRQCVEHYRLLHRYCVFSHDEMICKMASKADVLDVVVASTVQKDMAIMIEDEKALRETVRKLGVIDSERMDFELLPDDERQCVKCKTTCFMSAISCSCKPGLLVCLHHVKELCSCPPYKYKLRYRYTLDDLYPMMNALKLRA
Protocol: as §1

IC50 (KDM4C): > 2.5 µM
IC50 (KDM2A): > 2.5 µM
IC50 (KDM5B): > 2.5 µM
Structure (SMILES): CN(CCc1ccccc1)C(=O)CNCc1cc(/C=N/CCO)ccn1 [Compound 96, 2-[{4-[([(2-hydroxyethyl)imino]-methyl]pyridin-2-yl}methyl)amino]-N-methyl-N-(2-phenylethyl)acetamide]
